IC50 and Activity data for 1 compound are collected here from ChEMBL document CHEMBL1158721, “Brasilibactin A, a cytotoxic compound from actinomycete Nocardia brasiliensis” (J Nat Prod, 2005).

Common to all, as to type: functional, cell-based
For one experiment, the system named is L1210. Briefly: Cytotoxicity against mouse L1210 cells.
A further experiment has as its system KB. Briefly: Cytotoxicity against human KB cells.
The subject of another experiment is HL-60. Briefly: Induction of apoptosis in human HL60 cells assessed as increase in caspase3 activity.

Converted amounts (≈) assume the structure as drawn.

Usually IC50 stands for the point on the concentration scale where inhibition reaches its midpoint. A lower IC50 goes with greater potency. Take `CCCCCCCCCCCCCCC[C@H](OC(=O)[C@@H](CCCCN(O)C=O)NC(=O)[C@H]1COC(c2ccccc2O)=N1)[C@@H](C)C(=O)N[C@@H]1CCCCN(O)C1=O` [BRASILIBACTIN A]: the IC50 in the experiment on L1210 worked out at 0.02 µg/mL (≈ 0.0249 µM); in the experiment on KB, 0.04 µg/mL (≈ 0.0499 µM). Also, the Activity result with HL-60 was “Dose-dependent effect”.
